According to patent US20240025884A1 (Dong-A ST Co., Ltd., priority 2022, published 2024):

Target: GCN2 (Homo sapiens (Human), UniProt Q9P2K8)
Test: GCN2 Biochemical Assay (TR-FRET, GFP-eIF2S1 substrate phosphorylation)
Settings: read-out: IC50 (GCN2 Inhibitory Activity)
How it was run: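 TR-FRET readout (Ex 340, Em 490/520 nm) after 2–3 h with Tb-labelled phospho-eIF2S1 antibody in stop mix, following a 70 min room-temperature kinase step. Reaction: in-house GCN2, GFP-eIF2S1, ATP, tRNA in Tris pH 7.5 (2× stocks 1.6 nM, 50 nM, 0.2 mM); compounds tested at 10 concentrations, with a phospho-substrate artifact counter-plate.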

Chain of GCN2 (Q9P2K8 whole entry): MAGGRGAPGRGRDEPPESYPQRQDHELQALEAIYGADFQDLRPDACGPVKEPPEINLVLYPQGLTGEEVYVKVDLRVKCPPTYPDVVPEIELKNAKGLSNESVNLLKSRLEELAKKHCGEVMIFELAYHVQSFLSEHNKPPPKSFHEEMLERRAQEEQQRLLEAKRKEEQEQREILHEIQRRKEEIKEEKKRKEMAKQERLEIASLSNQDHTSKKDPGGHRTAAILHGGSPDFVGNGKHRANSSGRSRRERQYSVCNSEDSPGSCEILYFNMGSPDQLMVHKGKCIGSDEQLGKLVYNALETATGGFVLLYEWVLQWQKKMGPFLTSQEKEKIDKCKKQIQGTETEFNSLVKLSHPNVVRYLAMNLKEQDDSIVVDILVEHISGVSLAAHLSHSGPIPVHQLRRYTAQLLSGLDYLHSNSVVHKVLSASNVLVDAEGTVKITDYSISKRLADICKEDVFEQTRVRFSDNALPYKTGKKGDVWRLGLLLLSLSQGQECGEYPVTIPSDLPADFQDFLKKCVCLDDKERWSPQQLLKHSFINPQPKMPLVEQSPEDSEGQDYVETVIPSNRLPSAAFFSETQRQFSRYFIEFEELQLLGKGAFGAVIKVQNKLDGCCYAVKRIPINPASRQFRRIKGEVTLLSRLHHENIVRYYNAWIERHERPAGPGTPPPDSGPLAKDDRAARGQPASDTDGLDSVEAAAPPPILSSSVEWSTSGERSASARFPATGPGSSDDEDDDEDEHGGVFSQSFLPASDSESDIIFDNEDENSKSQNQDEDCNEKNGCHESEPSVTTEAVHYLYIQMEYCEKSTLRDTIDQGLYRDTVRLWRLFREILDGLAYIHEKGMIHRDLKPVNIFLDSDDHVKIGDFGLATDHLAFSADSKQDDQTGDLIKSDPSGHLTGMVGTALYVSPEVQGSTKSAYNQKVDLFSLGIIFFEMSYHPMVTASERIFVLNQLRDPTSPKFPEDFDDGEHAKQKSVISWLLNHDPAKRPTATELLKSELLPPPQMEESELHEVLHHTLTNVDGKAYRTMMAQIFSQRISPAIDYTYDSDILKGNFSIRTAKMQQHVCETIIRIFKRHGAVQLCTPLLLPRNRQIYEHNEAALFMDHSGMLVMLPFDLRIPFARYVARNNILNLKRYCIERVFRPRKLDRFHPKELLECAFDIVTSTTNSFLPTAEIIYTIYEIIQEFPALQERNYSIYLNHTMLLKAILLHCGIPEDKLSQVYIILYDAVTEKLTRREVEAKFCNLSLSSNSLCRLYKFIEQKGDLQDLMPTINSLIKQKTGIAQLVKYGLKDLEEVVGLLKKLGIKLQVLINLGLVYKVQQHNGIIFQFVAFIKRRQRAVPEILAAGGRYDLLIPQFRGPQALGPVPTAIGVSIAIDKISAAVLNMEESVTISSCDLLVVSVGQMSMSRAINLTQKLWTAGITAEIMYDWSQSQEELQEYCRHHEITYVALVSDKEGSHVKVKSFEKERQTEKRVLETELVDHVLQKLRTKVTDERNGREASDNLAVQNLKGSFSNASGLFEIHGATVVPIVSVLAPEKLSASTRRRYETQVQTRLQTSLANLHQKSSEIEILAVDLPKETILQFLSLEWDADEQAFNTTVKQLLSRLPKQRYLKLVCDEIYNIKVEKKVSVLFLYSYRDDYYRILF

IC50	SMILES
< 0.01 µM	CNc1cc(O[C@H]2CCN(CC(=O)Nc3cccc4c(-c5nc(Nc6cc(C)n(C)n6)ncc5C)c[nH]c34)C2)ncn1 [Example 141, (S)-N-(3-(2-((1,5-dimethyl-1H-pyrazol-3-yl)amino)-5-methylpyrimidin-4-yl)-1H-indol-7-yl)-2-(3-((6-(methylamino)pyrimidin-4-yl)oxy)pyrrolidin-1-yl)acetamide]
< 0.01 µM	CCNc1cc(O[C@H]2CCN(CC(=O)Nc3cccc4c(-c5nc(Nc6cc(C)n(C)n6)ncc5C)c[nH]c34)C2)ncn1 [Example 142, (S)-N-(3-(2-((1,5-dimethyl-1H-pyrazol-3-yl)amino)-5-methylpyrimidin-4-yl)-1H-indol-7-yl)-2-(3-((6-(ethylamino)pyrimidin-4-yl)oxy)pyrrolidin-1-yl)acetamide]
< 0.01 µM	CCCNc1cc(O[C@H]2CCN(CC(=O)Nc3cccc4c(-c5nc(Nc6cc(C)n(C)n6)ncc5C)c[nH]c34)C2)ncn1 [Example 143, (S)-N-(3-(2-((1,5-dimethyl-1H-pyrazol-3-yl)amino)-5-methylpyrimidin-4-yl)-1H-indol-7-yl)-2-(3-((6-(propylamino)pyrimidin-4-yl)oxy)pyrrolidin-1-yl)acetamide]
< 0.01 µM	CCCCNc1cc(O[C@H]2CCN(CC(=O)Nc3cccc4c(-c5nc(Nc6cc(C)n(C)n6)ncc5C)c[nH]c34)C2)ncn1 [Example 144, (S)-2-(3-((6-(butylamino)pyrimidin-4-yl)oxy)pyrrolidin-1-yl)-N-(3-(2-((1,5-dimethyl-1H-pyrazol-3-yl)amino)-5-methylpyrimidin-4-yl)-1H-indol-7-yl)acetamide]
< 0.01 µM	Cc1cnc(Nc2cc(C)n(C)n2)nc1-c1c[nH]c2c(NC(=O)CN3CC[C@H](Oc4cc(NCCO)ncn4)C3)cccc12 [Example 145, (S)-N-(3-(2-((1,5-dimethyl-1H-pyrazol-3-yl)amino)-5-methylpyrimidin-4-yl)-1H-indol-7-yl)-2-(3-((6-((2-hydroxyethyl)amino)pyrimidin-4-yl)oxy)pyrrolidin-1-yl)acetamide]
< 0.01 µM	Cc1cnc(Nc2cc(C)n(C)n2)nc1-c1c[nH]c2c(NC(=O)CN3CC[C@H](Oc4cc(NCCCO)ncn4)C3)cccc12 [Example 146, (S)-N-(3-(2-((1,5-dimethyl-1H-pyrazol-3-yl)amino)-5-methylpyrimidin-4-yl)-1H-indol-7-yl)-2-(3-((6-((3-hydroxypropyl)amino)pyrimidin-4-yl)oxy)pyrrolidin-1-yl)acetamide]
< 0.01 µM	COCCNc1cc(O[C@H]2CCN(CC(=O)Nc3cccc4c(-c5nc(Nc6cc(C)n(C)n6)ncc5C)c[nH]c34)C2)ncn1 [Example 147, (S)-N-(3-(2-((1,5-dimethyl-1H-pyrazol-3-yl)amino)-5-methylpyrimidin-4-yl)-1H-indol-7-yl)-2-(3-((6-((2-methoxyethyl)amino)pyrimidin-4-yl)oxy)pyrrolidin-1-yl)acetamide]
< 0.01 µM	Cc1cnc(Nc2cc(C)n(C)n2)nc1-c1c[nH]c2c(NC(=O)CN3CC[C@H](Oc4cc(NCCCN(C)C)ncn4)C3)cccc12 [Example 148, (S)-N-(3-(2-((1,5-dimethyl-1H-pyrazol-3-yl)amino)-5-methylpyrimidin-4-yl)-1H-indol-7-yl)-2-(3-((6-((3-(dimethylamino)propyl)amino)pyrimidin-4-yl)oxy)pyrrolidin-1-yl)acetamide]
< 0.01 µM	Cc1cnc(Nc2cc(C)n(C)n2)nc1-c1c[nH]c2c(NC(=O)CN3CC[C@H](Oc4cc(NCc5ccccc5)ncn4)C3)cccc12 [Example 149, (S)-2-(3-((6-(benzylamino)pyrimidin-4-yl)oxy)pyrrolidin-1-yl)-N-(3-(2-((1,5-dimethyl-1H-pyrazol-3-yl)amino)-5-methylpyrimidin-4-yl)-1H-indol-7-yl)acetamide]
0.01 to 0.1 µM	Cc1cnc(Nc2cc(C)n(C)n2)nc1-c1c[nH]c2c(NC(=O)CN3CC[C@H](Oc4cc(NCCc5ccccc5)ncn4)C3)cccc12 [Example 150, (S)-N-(3-(2-((1,5-dimethyl-1H-pyrazol-3-yl)amino)-5-methylpyrimidin-4-yl)-1H-indol-7-yl)-2-(3-((6-(phenethylamino)pyrimidin-4-yl)oxy)pyrrolidin-1-yl)acetamide]
< 0.01 µM	Cc1cnc(Nc2cc(C)n(C)n2)nc1-c1c[nH]c2c(NC(=O)CN3CC[C@H](Oc4cc(NC5CC5)ncn4)C3)cccc12 [Example 151, (S)-2-(3-((6-(cyclopropylamino)pyrimidin-4-yl)oxy)pyrrolidin-1-yl)-N-(3-(2-((1,5-dimethyl-1H-pyrazol-3-yl)amino)-5-methylpyrimidin-4-yl)-1H-indol-7-yl)acetamide]
0.01 to 0.1 µM	Cc1cnc(Nc2cc(C)n(C)n2)nc1-c1c[nH]c2c(NC(=O)CN3CC[C@H](Oc4cc(NC5CCCCC5)ncn4)C3)cccc12 [Example 152, (S)-2-(3-((6-(cyclohexylamino)pyrimidin-4-yl)oxy)pyrrolidin-1-yl)-N-(3-(2-((1,5-dimethyl-1H-pyrazol-3-yl)amino)-5-methylpyrimidin-4-yl)-1H-indol-7-yl)acetamide]
< 0.01 µM	Cc1cnc(Nc2cc(C)n(C)n2)nc1-c1c[nH]c2c(NC(=O)CN3CC[C@H](Oc4cc(N(C)C)ncn4)C3)cccc12 [Example 153, (S)-N-(3-(2-((1,5-dimethyl-1H-pyrazol-3-yl)amino)-5-methylpyrimidin-4-yl)-1H-indol-7-yl)-2-(3-((6-(dimethylamino)pyrimidin-4-yl)oxy)pyrrolidin-1-yl)acetamide]
< 0.01 µM	CCN(C)c1cc(O[C@H]2CCN(CC(=O)Nc3cccc4c(-c5nc(Nc6cc(C)n(C)n6)ncc5C)c[nH]c34)C2)ncn1 [Example 154, (S)-N-(3-(2-((1,5-dimethyl-1H-pyrazol-3-yl)amino)-5-methylpyrimidin-4-yl)-1H-indol-7-yl)-2-(3-((6-(ethyl(methyl)amino)pyrimidin-4-yl)oxy)pyrrolidin-1-yl)acetamide]
0.01 to 0.1 µM	CCN(CC)c1cc(O[C@H]2CCN(CC(=O)Nc3cccc4c(-c5nc(Nc6cc(C)n(C)n6)ncc5C)c[nH]c34)C2)ncn1 [Example 155, (S)-2-(3-((6-(diethylamino)pyrimidin-4-yl)oxy)pyrrolidin-1-yl)-N-(3-(2-((1,5-dimethyl-1H-pyrazol-3-yl)amino)-5-methylpyrimidin-4-yl)-1H-indol-7-yl)acetamide]
0.01 to 0.1 µM	CCCN(CC)c1cc(O[C@H]2CCN(CC(=O)Nc3cccc4c(-c5nc(Nc6cc(C)n(C)n6)ncc5C)c[nH]c34)C2)ncn1 [Example 156, (S)-N-(3-(2-((1,5-dimethyl-1H-pyrazol-3-yl)amino)-5-methylpyrimidin-4-yl)-1H-indol-7-yl)-2-(3-((6-(ethyl(propyl)amino)pyrimidin-4-yl)oxy)pyrrolidin-1-yl)acetamide]
0.01 to 0.1 µM	CCCCN(CC)c1cc(O[C@H]2CCN(CC(=O)Nc3cccc4c(-c5nc(Nc6cc(C)n(C)n6)ncc5C)c[nH]c34)C2)ncn1 [Example 157, (S)-2-(3-((6-(butyl(ethyl)amino)pyrimidin-4-yl)oxy)pyrrolidin-1-yl)-N-(3-(2-((1,5-dimethyl-1H-pyrazol-3-yl)amino)-5-methylpyrimidin-4-yl)-1H-indol-7-yl)acetamide]
< 0.01 µM	Cc1cnc(Nc2cc(C)n(C)n2)nc1-c1c[nH]c2c(NC(=O)CN3CC[C@H](Oc4cc(N5CCCC5)ncn4)C3)cccc12 [Example 158, (S)-N-(3-(2-((1,5-dimethyl-1H-pyrazol-3-yl)amino)-5-methylpyrimidin-4-yl)-1H-indol-7-yl)-2-(3-((6-(pyrrolidin-1-yl)pyrimidin-4-yl)oxy)pyrrolidin-1-yl)acetamide]
< 0.01 µM	Cc1cnc(Nc2cc(C)n(C)n2)nc1-c1c[nH]c2c(NC(=O)CN3CC[C@H](Oc4cc(N5CCC(O)C5)ncn4)C3)cccc12 (stereo partly drawn) [Example 159, N-(3-(2-((1,5-dimethyl-1H-pyrazol-3-yl)amino)-5-methylpyrimidin-4-yl)-1H-indol-7-yl)-2-((3S)-3-((6-(3-hydroxypyrrolidin-1-yl)pyrimidin-4-yl)oxy)pyrrolidin-1-yl)acetamide]
< 0.01 µM	Cc1cnc(Nc2cc(C)n(C)n2)nc1-c1c[nH]c2c(NC(=O)CN3CC[C@H](Oc4cc(N5CC[C@@H](O)C5)ncn4)C3)cccc12 [Example 160, N-(3-(2-((1,5-dimethyl-1H-pyrazol-3-yl)amino)-5-methylpyrimidin-4-yl)-1H-indol-7-yl)-2-((S)-3-((6-((R)-3-hydroxypyrrolidin-1-yl)pyrimidin-4-yl)oxy)pyrrolidin-1-yl)acetamide]
< 0.01 µM	Cc1cnc(Nc2cc(C)n(C)n2)nc1-c1c[nH]c2c(NC(=O)CN3CC[C@H](Oc4cc(N5CC[C@H](O)C5)ncn4)C3)cccc12 [Example 161, N-(3-(2-((1,5-dimethyl-1H-pyrazol-3-yl)amino)-5-methylpyrimidin-4-yl)-1H-indol-7-yl)-2-((S)-3-((6-((S)-3-hydroxypyrrolidin-1-yl)pyrimidin-4-yl)oxy)pyrrolidin-1-yl)acetamide]
< 0.01 µM	Cc1cnc(Nc2cc(C)n(C)n2)nc1-c1c[nH]c2c(NC(=O)CN3CC[C@H](Oc4cc(N5CCCCC5)ncn4)C3)cccc12 [Example 162, (S)-N-(3-(2-((1,5-dimethyl-1H-pyrazol-3-yl)amino)-5-methylpyrimidin-4-yl)-1H-indol-7-yl)-2-(3-((6-(piperidin-1-yl)pyrimidin-4-yl)oxy)pyrrolidin-1-yl)acetamide]
< 0.01 µM	Cc1cnc(Nc2cc(C)n(C)n2)nc1-c1c[nH]c2c(NC(=O)CN3CC[C@H](Oc4cc(N5CCC(O)CC5)ncn4)C3)cccc12 [Example 163, (S)-N-(3-(2-((1,5-dimethyl-1H-pyrazol-3-yl)amino)-5-methylpyrimidin-4-yl)-1H-indol-7-yl)-2-(3-((6-(4-hydroxypiperidin-1-yl)pyrimidin-4-yl)oxy)pyrrolidin-1-yl)acetamide]
< 0.01 µM	Cc1cnc(Nc2cc(C)n(C)n2)nc1-c1c[nH]c2c(NC(=O)CN3CC[C@H](Oc4cc(N5CCOCC5)ncn4)C3)cccc12 [Example 164, (S)-N-(3-(2-((1,5-dimethyl-1H-pyrazol-3-yl)amino)-5-methylpyrimidin-4-yl)-1H-indol-7-yl)-2-(3-((6-morpholinopyrimidin-4-yl)oxy)pyrrolidin-1-yl)acetamide]
